# Legend:
# [1] = cited from earlier work
# [2] = Differential scanning calorimetry (DSC), degree of crystallinity; assay type: physicochemical
# Excerpt: The coated herbicide powder and the water dispersible granule compositions described herein include coated, solid particles of fluroxypyr-meptyl that are largely or nearly completely in crystalline form. The degree of crystallinity of the solid particles of fluroxypyr-meptyl in these compositions (i.e., the weight percent of the fluroxypyr-meptyl that is in crystalline form) can be determined by differential scanning calorimetry (DSC) analysis and comparing the thermal properties of these compositions to a crystalline, non-coated sample of fluroxypyr-meptyl. In some embodiments, the coated particles of fluroxypyr-meptyl in these compositions have a degree of crystallinity that is at least about 70%, at least about 80%, at least about 90%, at least about 91%, at least about 92%, at least about 93%, at least about 94%, at least about 95%, at least about 96%, at least about 97%, at least about 98%, or at least about 99% and is reached within about one day, within about 2 days, within about 3 days, within about 4 days, within about 5 days, within about 6 days, or within about 7 days from the time of preparation of these solid compositions. […]
structure (smiles),measurement,setting,value
"CCCCCCC(C)OC(=O)COc1nc(F)c(Cl)c(N)c1Cl (centres unmarked) [Fluroxypyr-meptyl, 2-methylheptyl ester of 4-amino-3,5-dichloro-6-fluoro-2-pyridyloxyacetic acid]",solubility in water,[1],< 1 ppm
same,DSC Thermal Data: Heat Flow (absorbed),[2],70.01 J/g

# From US11039614B2, “Solid herbicide compositions containing fluroxypyr-meptyl” (Dow AgroSciences LLC, priority 2015, dated 2021)
